Test results taken from US8974737B2, “Space Disinfection” (Saban Ventures PTY Limited, priority 2005, dated 2015).
Read-outs that look alike come from different tables or passages of the source.

Columns and labels:
Pseudomonas aeruginosa = conditions: 8 cubic meters
Description: (§1) The components of the device included a nebuliser array, (6×2 cm diameter transducers in a circular array), a heater element, a first and second fan and a dehumidifier system. The dehumidifier used had been a small air conditioning unit positioned appropriately within the space. The purpose of the first fan was to propel nanoparticles from the heater into the space and the purpose of the second fan was to ensure an equal distribution of the aerosol to all surfaces within the space.
(§2) Tests were conducted in an 8 cubic meter volume of cubic shape.
(§3) Samples were coated with an inoculum at levels of approximately log 6 and air dried for 2 hours on the plastic petri dish (Techno-Plas, Australia) in a laminar flow cabinet. The samples were placed in various positions in the room including on the walls, floor and ceiling.
(§4) Unless otherwise stated, the operating conditions were: • Solution: 35% peroxide • Temp: 25 degrees • RH: fluctuated 45% to ˜65%. Sometimes 75% • Nebulizer array 2.4 MHz • Peroxide vapour: 300-500 ppm • Air flow post heater: 400-600 cubic meters per hour. • Heater Temp: 80-90 degrees • Peroxide delivery: Optimally approximately 0.75 gram per cubic meter per minute, ie […] for the 8 cubic meter room.
The dishes and lids are specifically designed to allow gas exchange with an incubator environment while keeping the dish free from external microbial contamination.

Aspergillus niger [1] = conditions: 8 cubic meters
Description: as §1, §2, §3, §4

Aspergillus niger [2] = conditions: 69 cubic meters, peroxide vapour 500 ppm, contact time 30 min
Protocol: as §3, §4

[3] = system: Bacillus stearothermophillus; conditions: at 550 ppm; on both the walls and floor
Protocol: as §3, §4

[4] = closed carriers, peroxide vapour 300 ppm, contact time 20 min
[5] = open carriers, peroxide vapour 50 ppm, contact time 5 min
[6] = open carriers, peroxide vapour 50 ppm, contact time 10 min
[7] = open carriers, peroxide vapour 50 ppm, contact time […]
[8] = open carriers, peroxide vapour 200 ppm, contact time 5 min
[9] = open carriers, peroxide vapour 200 ppm, contact time 10 min
[10] = open carriers, peroxide vapour 200 ppm, contact time 20 min
[11] = open carriers, peroxide vapour 200 ppm, contact time […]
[12] = open carriers, peroxide vapour 350 ppm, contact time 5 min
[13] = open carriers, peroxide vapour 350 ppm, contact time 10 min
[14] = open carriers, peroxide vapour 350 ppm, contact time 20 min
[15] = open carriers, peroxide vapour 350 ppm, contact time […]
[16] = peroxide vapour 250 ppm, contact time 5 min
[17] = peroxide vapour 250 ppm, contact time 10 min
[18] = peroxide vapour 250 ppm, contact time 20 min
[19] = peroxide vapour 250 ppm, contact time 30 min
[20] = peroxide vapour 500 ppm, contact time 5 min
[21] = peroxide vapour 500 ppm, contact time 10 min
[22] = peroxide vapour 500 ppm, contact time 20 min
[23] = peroxide vapour 500 ppm, contact time 30 min
[24] = Table 4, peroxide vapour 350 ppm, contact time 15 min
[25] = Table 4, peroxide vapour 550 ppm, contact time 15 min
[26] = Table 4, peroxide vapour 550 ppm, contact time 20 min
[27] = Table 4, peroxide vapour 550 ppm, contact time 30 min

Question: How did the “Wall (log reduction)” value (Pseudomonas aeruginosa; closed carriers, peroxide vapour 300 ppm, contact time 5 min) turn out when `OO` [Peroxide, hydrogen peroxide] was run?
Answer: 6.7 log reduction

Question: What about the “Wall (log reduction)” value (Pseudomonas aeruginosa; closed carriers, peroxide vapour 300 ppm, contact time 10 min) of the same molecule?
Answer: 6.3 log reduction

Question: And the “Floor (log reduction)” value (Pseudomonas aeruginosa; [4])?
Answer: 5.8 log reduction

Question: What about the “Wall (log reduction)” value (Pseudomonas aeruginosa; [4]) of the same molecule?
Answer: 6.7 log reduction

Question: What about the “Floor (log reduction)” value (Pseudomonas aeruginosa; [5]) of the same molecule?
Answer: TNTC

Question: What about the “Wall (log reduction)” value (Pseudomonas aeruginosa; [5]) of the same molecule?
Answer: 3.6 log reduction

Question: And the “Floor (log reduction)” value (Pseudomonas aeruginosa; [6])?
Answer: TNTC

Question: And the “Wall (log reduction)” value (Pseudomonas aeruginosa; [6])?
Answer: 4.3 log reduction

Question: And the “Floor (log reduction)” value (Pseudomonas aeruginosa; [7])?
Answer: TNTC

Question: And the “Wall (log reduction)” value (Pseudomonas aeruginosa; [7])?
Answer: 3.5 log reduction

Question: What about the “Floor (log reduction)” value (Pseudomonas aeruginosa; [8]) of the same molecule?
Answer: 5.2 log reduction

Question: What about the “Wall (log reduction)” value (Pseudomonas aeruginosa; [8]) of the same molecule?
Answer: 5.7 log reduction

Question: What about the “Floor (log reduction)” value (Pseudomonas aeruginosa; [9]) of the same molecule?
Answer: 3.4 log reduction

Question: And the “Wall (log reduction)” value (Pseudomonas aeruginosa; [9])?
Answer: 5.7 log reduction

Question: And the “Floor (log reduction)” value (Pseudomonas aeruginosa; [10])?
Answer: 5.7 log reduction

Question: And the “Wall (log reduction)” value (Pseudomonas aeruginosa; [10])?
Answer: 5.7 log reduction

Question: What about the “Floor (log reduction)” value (Pseudomonas aeruginosa; [11]) of the same molecule?
Answer: 4.4 log reduction

Question: What about the “Wall (log reduction)” value (Pseudomonas aeruginosa; [11]) of the same molecule?
Answer: 5.7 log reduction

Question: And the “Floor (log reduction)” value (Pseudomonas aeruginosa; [12])?
Answer: 6.1 log reduction

Question: And the “Wall (log reduction)” value (Pseudomonas aeruginosa; [12])?
Answer: 5.8 log reduction

Question: What about the “Floor (log reduction)” value (Pseudomonas aeruginosa; [13]) of the same molecule?
Answer: 6.1 log reduction

Question: And the “Wall (log reduction)” value (Pseudomonas aeruginosa; [13])?
Answer: 6.1 log reduction

Question: And the “Floor (log reduction)” value (Pseudomonas aeruginosa; [14])?
Answer: 6.1 log reduction

Question: And the “Wall (log reduction)” value (Pseudomonas aeruginosa; [14])?
Answer: 6.1 log reduction

Question: And the “Floor (log reduction)” value (Pseudomonas aeruginosa; [15])?
Answer: 6.1 log reduction

Question: And the “Wall (log reduction)” value (Pseudomonas aeruginosa; [15])?
Answer: 4.4 log reduction

Question: What about the “Wall (log reduction) Closed carriers” value (Aspergillus niger [1]; [16]) of the same molecule?
Answer: 5.1 log reduction

Question: What about the “Wall (log reduction) Open carriers” value (Aspergillus niger [1]; [16]) of the same molecule?
Answer: 6.3 log reduction

Question: What about the “Wall (log reduction) Closed carriers” value (Aspergillus niger [1]; [17]) of the same molecule?
Answer: 6.3 log reduction

Question: What about the “Wall (log reduction) Open carriers” value (Aspergillus niger [1]; [17]) of the same molecule?
Answer: 6.3 log reduction

Question: What about the “Wall (log reduction) Closed carriers” value (Aspergillus niger [1]; [18]) of the same molecule?
Answer: 6.3 log reduction

Question: What about the “Wall (log reduction) Open carriers” value (Aspergillus niger [1]; [18]) of the same molecule?
Answer: 6.3 log reduction

Question: And the “Wall (log reduction) Closed carriers” value (Aspergillus niger [1]; [19])?
Answer: 6.3 log reduction

Question: What about the “Wall (log reduction) Open carriers” value (Aspergillus niger [1]; [19]) of the same molecule?
Answer: 6.3 log reduction

Question: What about the “Wall (log reduction) Closed carriers” value (Aspergillus niger [1]; [20]) of the same molecule?
Answer: 6.9 log reduction

Question: And the “Wall (log reduction) Open carriers” value (Aspergillus niger [1]; [20])?
Answer: 6.9 log reduction

Question: And the “Wall (log reduction) Closed carriers” value (Aspergillus niger [1]; [21])?
Answer: 6.9 log reduction

Question: What about the “Wall (log reduction) Open carriers” value (Aspergillus niger [1]; [21]) of the same molecule?
Answer: 6.9 log reduction

Question: What about the “Wall (log reduction) Closed carriers” value (Aspergillus niger [1]; [22]) of the same molecule?
Answer: 6.9 log reduction

Question: And the “Wall (log reduction) Open carriers” value (Aspergillus niger [1]; [22])?
Answer: 6.9 log reduction

Question: What about the “Wall (log reduction) Closed carriers” value (Aspergillus niger [1]; [23]) of the same molecule?
Answer: 6.9 log reduction

Question: And the “Wall (log reduction) Open carriers” value (Aspergillus niger [1]; [23])?
Answer: 6.9 log reduction

Question: And the “Floor (log reduction) Closed carriers” value (Aspergillus niger [1]; [24])?
Answer: 6.1 log reduction

Question: What about the “Floor (log reduction) Open carriers” value (Aspergillus niger [1]; [24]) of the same molecule?
Answer: 6.5 log reduction

Question: What about the “Wall (log reduction) Closed carriers” value (Aspergillus niger [1]; [24]) of the same molecule?
Answer: 5.7 log reduction

Question: What about the “Wall (log reduction) Open carriers” value (Aspergillus niger [1]; [24]) of the same molecule?
Answer: 5.9 log reduction

Question: And the “Floor (log reduction) Closed carriers” value (Aspergillus niger [1]; [25])?
Answer: 6.6 log reduction

Question: And the “Floor (log reduction) Open carriers” value (Aspergillus niger [1]; [25])?
Answer: 6.7 log reduction

Question: What about the “Wall (log reduction) Closed carriers” value (Aspergillus niger [1]; [25]) of the same molecule?
Answer: 6.3 log reduction

Question: And the “Wall (log reduction) Open carriers” value (Aspergillus niger [1]; [25])?
Answer: 6.7 log reduction

Question: What about the “Floor (log reduction) Closed carriers” value (Aspergillus niger [1]; [26]) of the same molecule?
Answer: 7.5 log reduction

Question: And the “Floor (log reduction) Open carriers” value (Aspergillus niger [1]; [26])?
Answer: 7.5 log reduction

Question: And the “Wall (log reduction) Closed carriers” value (Aspergillus niger [1]; [26])?
Answer: 7.5 log reduction

Question: And the “Wall (log reduction) Open carriers” value (Aspergillus niger [1]; [26])?
Answer: 7.5 log reduction

Question: And the “Floor (log reduction) Closed carriers” value (Aspergillus niger [1]; [27])?
Answer: 7.5 log reduction

Question: What about the “Floor (log reduction) Open carriers” value (Aspergillus niger [1]; [27]) of the same molecule?
Answer: 7.5 log reduction

Question: What about the “Wall (log reduction) Closed carriers” value (Aspergillus niger [1]; [27]) of the same molecule?
Answer: 6.6 log reduction

Question: And the “Wall (log reduction) Open carriers” value (Aspergillus niger [1]; [27])?
Answer: 7.5 log reduction

Question: And the “Floor (log reduction)” value (Aspergillus niger [2]; closed)?
Answer: 6.7 log reduction

Question: And the “Wall (log reduction)” value (Aspergillus niger [2]; closed)?
Answer: 6.7 log reduction

Question: What about the “Floor (log reduction)” value (Aspergillus niger [2]; open) of the same molecule?
Answer: 6.7 log reduction

Question: What about the “Wall (log reduction)” value (Aspergillus niger [2]; open) of the same molecule?
Answer: 6.7 log reduction

Question: And the log reductions [3]?
Answer: greater than 6 log reductions
